Experiments:
[1] = biological target: T1, human E-Selectin-IgG-chimera (Homo sapiens, UniProt P16581); assay: Sialyl Lewis x Tyrosine Sulfate Assay (sLex TSA), E-selectin; format: binding; conditions: for inhibition at 100 µM / E-Selectin [% Inhib.]: compound at 100 μM; for inhibition at 100 µM: read-out: E-Selectin [% Inhib.]
T1 construct: fused on or other part: human IgG Fc part, a tag and dimerising handle that is captured by the goat anti-human Fc antibody on the plate
T1 sequence (P16581 22-175 limits assumed): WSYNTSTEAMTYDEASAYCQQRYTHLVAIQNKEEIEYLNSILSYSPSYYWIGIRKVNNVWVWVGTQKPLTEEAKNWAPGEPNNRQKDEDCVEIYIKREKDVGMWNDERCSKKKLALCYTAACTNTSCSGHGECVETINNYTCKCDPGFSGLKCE
Description: (§1) Compounds of the present invention are assayed on a molecular level for their ability to inhibit the binding of P-, L-, or E-selectin chimeric molecules to sLe^x and tyrosinesulfate residues linked to a polymeric matrix as a PSGL-1 substitute.
(§2) Microtiter plates are coated overnight in carbonate buffer pH9.6 with goat anti human Fc mAB (10 μg/ml). After washing in assay buffer (25 mM 4-(2-hydroxyethyl)-1-piperazineethanesulfonic acid (HEPES), 150 mM NaCl, 1 mM CaCl2 pH7.4) and blocking (3% bovine serum albumin (BSA) in assay buffer) plates are incubated for 2 h at 37° C. with human P-Selectin-IgG-chimera (0.61 nM respectively 150 ng/mL) or human L-Selectin-IgG-chimera (0.61 nM respectively 89 ng/mL) or human E-Selectin-IgG-chimera (0.61 nM respectively 131 ng/mL). 5 μl of sLe^x-tyrosine sulfate polyacrylamide (1 mg/ml) carrying 15% sLe^x, 10% Tyrosine-sulfate and 5% biotin is complexed with 20 μl Streptavidin-Peroxidase solution (1 mg/ml) and 25 μl assay buffer without CaCl2. For use in the assay, the ligand complex is diluted 1:10000 in assay buffer and further diluted 1:1 with varying amounts of compounds in assay buffer incl. 2% DMSO. This mixture is added to the wells precoated with E- or P-selectin. After incubation for 2 h at 37° C., wells are washed for six times with in assay buffer incl. 0.005% Polyoxyethylenesorbitan monolaurate (TWEEN 20), developed for 10-15 min with 20 μl 3,3′,5,5′-tetramethylbenzidine (TMB)/H2O2 substrate solution and stopped with 20 μl […]. Bound sLe^x-Tyrosine sulfate ligand complex is determined by measuring optical density at 450 nm vs. 620 nm in a Fusion alpha-FP reader (sold from Packard Bioscience, Dreieich, Germany).

[2] = biological target: T2, human P-Selectin-IgG-chimera (Homo sapiens, UniProt P16109); assay: Sialyl Lewis x Tyrosine Sulfate Assay (sLex TSA), P-selectin; format: binding; conditions: for inhibition at 100 µM / P-Selectin [% Inhib.]: compound at 100 μM; for inhibition at 100 µM: read-out: P-Selectin [% Inhib.]
T2 sequence (P16109 42-771 limits assumed): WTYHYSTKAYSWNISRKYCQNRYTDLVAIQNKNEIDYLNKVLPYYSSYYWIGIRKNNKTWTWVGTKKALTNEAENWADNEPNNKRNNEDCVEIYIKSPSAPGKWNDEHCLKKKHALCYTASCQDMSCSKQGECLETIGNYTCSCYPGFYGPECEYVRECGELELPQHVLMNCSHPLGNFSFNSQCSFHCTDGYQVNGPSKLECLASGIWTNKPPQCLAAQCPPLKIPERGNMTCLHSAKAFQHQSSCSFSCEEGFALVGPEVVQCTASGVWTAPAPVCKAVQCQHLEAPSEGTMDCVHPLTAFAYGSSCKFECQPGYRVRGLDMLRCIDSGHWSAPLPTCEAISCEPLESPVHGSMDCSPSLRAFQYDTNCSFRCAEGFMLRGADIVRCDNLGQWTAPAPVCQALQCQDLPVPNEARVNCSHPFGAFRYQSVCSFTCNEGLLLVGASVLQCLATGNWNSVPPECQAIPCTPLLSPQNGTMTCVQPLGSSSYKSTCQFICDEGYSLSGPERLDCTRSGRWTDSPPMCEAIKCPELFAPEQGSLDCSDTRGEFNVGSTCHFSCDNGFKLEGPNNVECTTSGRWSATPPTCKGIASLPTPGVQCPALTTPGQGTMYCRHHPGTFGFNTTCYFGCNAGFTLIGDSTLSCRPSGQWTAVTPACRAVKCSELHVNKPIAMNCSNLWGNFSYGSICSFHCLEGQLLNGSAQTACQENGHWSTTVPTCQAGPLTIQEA
Description: as §1, §2

[3] = biological target: T3, human L-Selectin-IgG-chimera (Homo sapiens, UniProt P14151); assay: Sialyl Lewis x Tyrosine Sulfate Assay (sLex TSA), L-selectin; format: binding; conditions: for inhibition at 100 µM / L-Selectin [% Inhib.]: compound at 100 μM; for inhibition at 100 µM: read-out: L-Selectin [% Inhib.]
T3 construct: fused on or other part: human IgG Fc part, a tag and dimerising handle that is captured by the goat anti-human Fc antibody on the plate
T3 sequence (P14151 39-318 limits assumed): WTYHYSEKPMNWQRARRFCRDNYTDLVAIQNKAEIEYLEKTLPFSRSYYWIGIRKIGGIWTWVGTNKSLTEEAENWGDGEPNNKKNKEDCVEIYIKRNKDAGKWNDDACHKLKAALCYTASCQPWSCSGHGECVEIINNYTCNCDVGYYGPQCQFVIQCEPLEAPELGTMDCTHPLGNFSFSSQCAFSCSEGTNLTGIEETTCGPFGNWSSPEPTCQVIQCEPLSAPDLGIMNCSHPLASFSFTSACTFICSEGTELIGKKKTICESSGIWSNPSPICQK
Description: as §1, §2

[4] = Parallel Artificial Membrane Permeation Assay (PAMPA); format: in vitro ADME; conditions: 16 hours, room temperature
Description: The test compounds are dissolved at 10 mM in DMSO and diluted to 500 μM with PBS pH 7.4 or pH 4.0, respectively resulting in ‘donor solutions’. For use as an artificial membrane, a 1% solution of lecithin (w/v) in dodecane is prepared and sonicated. Then, 5 μl of the lecithin/dodecane mixture are carefully pipetted into each donor plate well. Immediately after the application of the artificial membrane, 150 μl of drug containing donor solutions are added to each well of the donor plate. Each well of the acceptor plate is filled with 300 μl buffer (PBS with 5% DMSO at pH 7.4 or pH 4.0, respectively) and the drug-filled donor plate is placed onto the acceptor plate, making sure the membrane is in contact with the buffer. After replacement of the lid, the assembled plates are transferred into a sealed box equipped with a moistured towel and incubated at room temperature for 16 hours. Then, the wells of the acceptor plate are analyzed with LC/MS.

Row | Structure (SMILES) | inhibition at 100 µM [1] [%] | inhibition at 100 µM [2] [%] | inhibition at 100 µM [3] [%] | [% flux] at pH 4.0 ([4]; pH 4.0, 500 μM donor) [%] | [% flux] at pH 7.4 ([4]; pH 7.4, 500 μM donor) [%] | IC50 [1] [µM] | IC50 [2] [µM] | IC50 [3] [µM] | E-Selectin [% Inhib.] [1] [%] | P-Selectin [% Inhib.] [2] [%] | L-Selectin [% Inhib.] [3] [%]
1 | COC(=O)Cc1cccc(-c2ccccc2NC(=O)CCc2cc(O)c(O)c(O)c2)c1 [Compound 73, {2′-[3-(3,4,5-Trihydroxy-phenyl)-propionylamino]-biphenyl-3-yl}-acetic acid methyl ester] | 54 | 84 | 88 |  |  |  |  |  |  |  | 
2 | COC(=O)c1ccccc1NC(=O)Cc1ccc(O)c(O)c1O [Compound 93] | 20 | 68 | 63 | 0 | 17 |  |  |  |  |  | 
3 | O=C(O)Cc1cccc(-c2ccccc2NC(=O)Cc2cc(O)c(O)c(O)c2)c1 [Compound 94] | 79 | 78 | 76 |  |  | 4.9 | 4.2 | 8.7 |  |  | 
4 | O=C(O)Cc1cccc(-c2ccccc2NC(=O)CCc2cc(O)c(O)c(O)c2)c1 [Compound 95] |  |  |  |  |  |  |  |  | 89 | 90 | 81
5 | O=C(Cc1cc(O)c(O)c(O)c1)Nc1cccc(C(=O)O)c1 [Compound 96] | 63 | 86 | 73 |  |  | 0.8 | 1.1 | 1.4 |  |  | 
6 | O=C(O)Cc1cccc(NC(=O)Cc2cc(O)c(O)c(O)c2)c1 [Compound 98] | 58 | 57 | 52 |  |  | 1 | 2.1 |  |  |  | 
7 | O=C(Cc1ccc(O)c(O)c1O)NCC1CCC(C(=O)O)CC1 (stereo not drawn) [Compound 100] |  |  |  |  |  |  |  |  | 21 | 40 | 27
8 | O=C(O)Cc1ccc(-c2ccccc2NC(=O)Cc2cc(O)c(O)c(O)c2)s1 [Compound 103] |  |  |  |  |  |  |  |  | 68 | 87 | 81
9 | O=C(Cc1cc(O)c(O)c(O)c1)NCC1CCC(C(=O)O)CC1 (stereo not drawn) [Compound 104] | 67 | 67 | 62 |  |  | 3 | 2.8 | 3.3 |  |  | 
10 | O=C(CCc1cc(O)c(O)c(O)c1)NCC1CCC(C(=O)O)CC1 (stereo not drawn) [Compound 105] | 90 | 86 | 84 |  |  | 3.1 | 3.4 | 5.7 |  |  | 

More lines, now with the values ahead:

Row | inhibition at 100 µM [1] [%] | inhibition at 100 µM [2] [%] | inhibition at 100 µM [3] [%] | [% flux] at pH 4.0 ([4]; pH 4.0, 500 μM donor) [%] | [% flux] at pH 7.4 ([4]; pH 7.4, 500 μM donor) [%] | IC50 [1] [µM] | IC50 [2] [µM] | IC50 [3] [µM] | E-Selectin [% Inhib.] [1] [%] | P-Selectin [% Inhib.] [2] [%] | L-Selectin [% Inhib.] [3] [%] | Structure (SMILES)
11 |  |  |  |  |  |  |  |  | 52 | 94 | 85 | O=C(O)Cc1ccc(-c2ccccc2NC(=O)CCc2ccc(O)c(O)c2O)s1 [Compound 106]
12 |  |  |  |  |  |  |  |  | 53 | 87 | 75 | Cc1ccc(C(=O)O)cc1NC(=O)Cc1cc(O)c(O)c(O)c1 [Compound 107]
13 | 85 | 86 | 84 |  |  | 1.3 | 1.7 | 1.8 |  |  |  | Cc1ccc(C(=O)O)cc1NC(=O)CCc1cc(O)c(O)c(O)c1 [Compound 108]
14 | 82 | 73 | 72 |  |  | 2.3 |  |  |  |  |  | O=C(O)Cc1cccc(NC(=O)CCc2cc(O)c(O)c(O)c2)c1 [Compound 109]
15 |  |  |  |  |  |  |  |  | 96 | 96 | 92 | O=C(CCc1cc(O)c(O)c(O)c1)Nc1cccc(C(=O)O)c1 [Compound 110]
16 | 46 | 99 | 97 |  |  | 0.6 | 2.1 | 7 |  |  |  | O=C(Cc1ccc(O)c(O)c1O)Nc1cccc(C(=O)O)c1 [Compound 111]
17 | 38 | 97 | 83 |  |  |  | 7.4 | 16 |  |  |  | O=C(O)Cc1cccc(NC(=O)Cc2ccc(O)c(O)c2O)c1 [Compound 112]
18 |  |  |  |  |  |  |  |  | 42 | 73 | 48 | Cc1c(NC(=O)Cc2ccc(O)c(O)c2O)cccc1C(=O)O [Compound 113]
19 |  |  |  |  |  |  |  |  | 38 | 99 | 95 | O=C(CCc1ccc(O)c(O)c1O)Nc1cccc(C(=O)O)c1 [Compound 114]
20 |  |  |  |  |  |  |  |  |  | 89 | 88 | Cc1c(NC(=O)CCc2ccc(O)c(O)c2O)cccc1C(=O)O [Compound 115]
21 | 92 | 88 | 87 |  |  | 7.3 | 13 | 15 |  |  |  | Cc1ccc(C(=O)O)cc1NC(=O)CCc1ccc(O)c(O)c1O [Compound 116]
22 | 94 | 86 | 89 |  |  | 8.4 | 21.7 | 109 |  |  |  | Cc1c(NC(=O)CCc2cc(O)c(O)c(O)c2)cccc1C(=O)O [Compound 117]
23 |  |  |  |  |  |  |  |  | 14 | 82 | 55 | O=C(Cc1ccc(O)c(O)c1O)NCc1ccc(C(=O)O)cc1 [Compound 119]
